Measurements taken from patent publication US12611443B2, “Methods and compositions related to therapeutic peptides for cancer therapy” (THE UNIVERSITY OF CHICAGO, priority 2018, dated 2026).

Key:
[1] = tested on: E0771 and B16F10 1° and 2° tumors; assay: Abscopal effect studies; type: in vivo, C57BL/6 mice
Description: Abscopal effect studies. For the E0771 model, 0.5×10^6 cells were injected into the 4th mammary fat pad of the right ventral side (1° tumor) and 0.4×10^6 cells were injected into the 4th mammary fat pad of the left ventral side (2° tumor) of C57BL/6 mice. Once the 1° tumor reached ˜100 mm^3, ELANE or PMSF-ELANE (11.6 μg/100 μL) were injected IT into the 1° tumor once/day for 5 days, and 1° and 2° tumor volumes were measured by calipers. For the B16F10 model, 0.5×10^6 cells were injected into the flank (1° tumor). 7 days later, 0.2×10^6 cells were injected into the lateral tail vein to create 2° lung metastases. Once the 1° tumor reached ˜100 mm^3, ELANE or PMSF-ELANE (11.6 μg/100 μL) were injected IT into the 1° tumor once/day for 5 days, and the 1° tumor volume was measured by calipers. Lungs were excised 10 days after the final ELANE treatment, and 2° lung metastases were counted. For CD8^+ T cell depletion, anti-mouse CD8α (clone 2.43, Bio X Cells) or rat IgG2b (isotype control, Bio X Cells) were injected IV (200 μg/injection) 3 days before the first ELANE treatment, and once/week after the last ELANE treatment. CD8^+ T cell depletion was confirmed by flow cytometry.
For the ‘spillover control’, 0.5×10^6 E0771 cells were injected into the 4th mammary fat pad of the left ventral side (2° tumor). ELANE or PMSF-ELANE (11.6 μg/100 μL) were injected into the tumor-free 4th mammary fat pad of the right ventral side pad once/day for 5 days, and 2° tumor volume was measured by calipers.
For the ‘specificity control’, 0.5×10^6 E0771 cells were injected into the into the 4th mammary fat pad of the right ventral side (1° tumor) and 7 days later, 1×10^6B16F10 cells were injected into the flank (2° tumor). Once the 1° tumor reached ˜100 mm^3, ELANE or PMSF-ELANE (11.6 μg/100 μL) were injected IT into the 1° tumor once/day for 5 days, and 1° and 2° tumor volumes were measured by calipers.

[2] = tested on: tumors (MDA-MB-231, A549, MEL888, M1, 4195, E0771, LLC1, B16F10); assay: Intra-tumoral treatment of tumor models (xenograft, PDX, syngeneic); type: in vivo, mice
Description: Tumor inoculation and treatment. MDA-MB-231 cells (2×10^6), A549 cells (2×10^6) with Matrix Type 3), or MEL888 cells (2×10^6 with Matrix Type 3) were injected into athymic nude mice (Charles River); M1 or 4195 cells (50,000) were injected into NOD.SCID mice (JAX); and E0771 cells (0.5×10^6), LLC1 cells (0.5×10^6), or B16F10 cells (1×10^6), were injected into C57BL/6 mice (JAX). For TNBC models (MDA-MB-231, E0771, M1, 4195), cells were injected into the 4th mammary fat pad of the right ventral side. For all other models (A549, LLC1, MEL888, B16F10), cells were injected into the flank. Once tumors reached ˜100 mm^3, ELANE or PMSF-ELANE (11.6 μg/100 μL), or neutrophil medias or HSA (50 μg/100 μL) were delivered IT once/day for 5 days. Tumor volume was assessed by calipers, and experiments were terminated when tumor volume in control mice reached >1000 mm^3.
Tumor immunohistochemistry. Tumors were fixed in 4% paraformaldehyde in PBS for 24 h, embedded in paraffin blocks, and sectioned (5 μm). Slides were stained with cCASP3 (9661) and cPARP (9625) antibodies from Cell Signaling Technology. Signals were developed using the VECTASTAIN ABC kit (Vector Laboratories) or fluorescently-labeled secondary antibodies (melanoma models). For the TUNEL assay, staining was performed with the DeadEnd™ colorimetric or fluorometric TUNEL systems (Promega). Cell nuclei were labeled with haematoxylin or Hoechst 33342 (ThermoFisher Scientific). Images were obtained with a Nikon Eclipse Ti2 microscope and analyzed using NIS-Elements software.

MDA-MB-231 cells = assay: Cell viability of MDA-MB-231 cells treated with purified ELANE or ECP; type: cell-based, human; settings: MDA-MB-231
Description: In vitro cell viability assays. […] Luminescence was measured using a Victor X3 luminometer (PerkinElmer).

“ELANE: neutrophil elastase, a serine protease released by human PMNs” was tested, and the “number of 2° lung metastases” value ([1]; 1° B16F10 tumor treated, 12 μg/day for 5 days) was “lowered the number of lung metastases”, the “tumorigenesis in 2° B16F10 tumor (specificity control)” value ([1]; 1° E0771 tumor treated) was “did not impact tumorigenesis in a 2° B16F10 tumor” and the “tumorigenesis at 1° and 2° E0771 tumors” value ([1]; 1° tumor treated, 12 μg/day for 5 days) was “attenuated tumorigenesis at both sites”. The “abscopal effect after depleting CD8+ T cells” value ([1]; both models) was “attenuated ELANE's abscopal effect in both models”, the “tumorigenesis after injection into contralateral site” value ([1]; opposite the tumor, tumor-bearing mice) was “failed to attenuate tumorigenesis” and the “therapeutic benefit, dose finding” value ([2]; E0771 TNBC model, IT, 12 μg/day) was “good therapeutic benefit that was reproducible”. The tumor growth ([2]; ELANE 12 μg/day IT, TNBC, lung cancer, melanoma models) was “attenuated tumor growth in all models tested”, the “staining for TUNEL, cPARP, and cCASP3 in tumors” value ([2]; ELANE IT) was “increase in staining for TUNEL, cPARP, and cCASP3 in all ELANE-treated tumors” and the “tumors with a crater” value ([2]; all immunocompetent models tested) was ~40%. The “craters in tumor-free mice and immunocompromised cancer models” value ([2]; mouse, in vivo) was “Craters were not observed” and the “cell viability, purified protein” value (MDA-MB-231 cells) was “killed MDA-MB-231 cells in a dose-dependent manner”.
